A word on the EC50: it is the concentration at which the effect is half-maximal. High values mean a less potent agent, low ones a more potent agent.

Molecules are shown by their SMILES.

Data set [1] addresses JAK1 (Homo sapiens (Human), UniProt P23458). The experiment in a line: JAK kinase assay (HTRF), JAK1. It counts as biochemical. The conditions noted are these: catalytic domain, ATP at Km (7 μM). In outline:
(§1)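 Catalytic-domain human JAK1 (GST-tagged, aa 850-1154) or His-tagged JAK2, baculovirus-expressed, phosphorylated 1 µM biotinylated TK peptide at Km ATP (JAK1 7 µM, 10 mM MgCl2, 50 nM SEB; JAK2 4 µM, 5 mM MgCl2) in pH 7.0 Hepes, 20-30 min RT. EDTA stop; overnight streptavidin-XL665/cryptate HTRF read.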
On the technique in general: TR-FRET usually uses a lanthanide donor and a delayed reading to cut background.

Data set [2] concerns the target JAK2 (Homo sapiens (Human), UniProt O60674). The experiment in a line: JAK kinase assay (HTRF), JAK2. It is filed as biochemical. The conditions noted are these: catalytic domain, ATP at Km (4 μM). In a few lines: as §1
Data set [3] deals with JAK3 (Homo sapiens (Human), UniProt P52333). Put plainly: JAK kinase assay (HTRF), JAK3. It is filed as biochemical. Particulars: catalytic domain, ATP at Km (2 μM). In a few lines:
(§2)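 HTRF read-out of biotinylated TK peptide phosphorylation (1 μM) after a 20-30 min RT reaction in pH 7.0 Hepes buffer with 5 mM MgCl2 and 0.75% DMSO. JAK3 (His-tagged catalytic domain) used 2 μM ATP; TYK2 (GST-tagged, aa 871-1187) used 13 μM ATP plus 50 nM SEB, each at ATP Km.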

Data set [4] has as its target TYK2 (Homo sapiens (Human), UniProt P29597). Put plainly: JAK kinase assay (HTRF), TYK2. It is filed as biochemical. The conditions noted are these: catalytic domain, ATP at Km (13 μM). In outline: as §2
The nature of data set [5]: in vitro metabolic stability in human liver microsomes. It counts as in vitro ADME. The conditions noted are these: human, liver microsomes, 0.5 μM compound, 0.5 mg/mL microsomes, NADPH, 40 min, 37° C.; read-out: Human liver microsome Clapp (apparent intrinsic clearance). In outline: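 Compounds at 0.5 μM incubated in duplicate with human liver microsomes (0.5 mg/mL), phosphate buffer and NADPH at 37 °C for 40 min, sampled at 0, 5, 10, 20, 40 min into cold acetonitrile. LC-TOF-MS depletion gave elimination rate constant, from which apparent intrinsic clearance (Clapp) was calculated.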
In general terms: Microsomes from liver hold many membrane-bound enzymes, among them those of drug oxidation.

Chain of JAK2 (O60674 849-1124): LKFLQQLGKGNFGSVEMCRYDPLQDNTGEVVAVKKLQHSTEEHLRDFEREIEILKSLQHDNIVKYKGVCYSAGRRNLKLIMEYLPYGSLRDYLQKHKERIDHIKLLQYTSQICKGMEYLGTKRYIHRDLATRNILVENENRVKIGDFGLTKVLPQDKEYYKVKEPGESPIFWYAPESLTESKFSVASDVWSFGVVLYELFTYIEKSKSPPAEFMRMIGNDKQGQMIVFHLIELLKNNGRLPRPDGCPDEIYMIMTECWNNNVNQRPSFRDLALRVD
Chain of TYK2 (P29597 871-1187): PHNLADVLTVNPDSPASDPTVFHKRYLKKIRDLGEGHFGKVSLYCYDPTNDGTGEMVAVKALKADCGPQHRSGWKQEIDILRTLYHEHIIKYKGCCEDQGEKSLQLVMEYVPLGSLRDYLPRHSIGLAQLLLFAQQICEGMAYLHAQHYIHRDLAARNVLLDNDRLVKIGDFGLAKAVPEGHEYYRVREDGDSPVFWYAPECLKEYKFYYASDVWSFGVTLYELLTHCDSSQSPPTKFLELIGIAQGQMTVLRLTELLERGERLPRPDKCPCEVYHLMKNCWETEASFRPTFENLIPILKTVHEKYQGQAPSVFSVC
Chain of JAK3 (P52333 822-1111): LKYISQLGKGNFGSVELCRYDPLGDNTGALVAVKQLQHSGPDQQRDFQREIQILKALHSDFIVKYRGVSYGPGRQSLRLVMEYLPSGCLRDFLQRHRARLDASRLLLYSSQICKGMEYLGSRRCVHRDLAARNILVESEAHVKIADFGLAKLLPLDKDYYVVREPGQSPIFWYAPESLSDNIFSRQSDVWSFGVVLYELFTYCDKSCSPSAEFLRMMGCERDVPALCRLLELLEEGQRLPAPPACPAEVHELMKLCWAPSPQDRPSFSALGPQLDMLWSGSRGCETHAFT
Chain of JAK1 (P23458 850-1154): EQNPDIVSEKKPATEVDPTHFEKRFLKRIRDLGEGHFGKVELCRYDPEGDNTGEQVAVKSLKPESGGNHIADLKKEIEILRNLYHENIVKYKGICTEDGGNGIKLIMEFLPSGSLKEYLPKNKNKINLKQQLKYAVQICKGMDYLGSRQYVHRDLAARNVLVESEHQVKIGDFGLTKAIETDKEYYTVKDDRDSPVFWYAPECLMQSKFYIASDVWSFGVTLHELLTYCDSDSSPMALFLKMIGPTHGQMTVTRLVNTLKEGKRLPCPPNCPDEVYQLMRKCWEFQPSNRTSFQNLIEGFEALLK

Regarding `O=C(NCC1CCCC1)C1CCN(c2ncnc3[nH]ccc23)CC12CC2` (stereo not drawn) [Example 82, N-(cyclopentylmethyl)-5-(7H-pyrrolo[2,3-d]pyrimidin-4-yl)-5-azaspiro[2.5]octane-8-carboxamide], the EC50 turned out to be 6.8 nM in data set [1], 11.5 nM in data set [2], 38.7 nM in data set [3] and 400 nM in data set [4]. In addition, the CLint scaled at 0.5 μM in data set [5] stood at 198 mL/min/kg.

Take `C[C@H](NC(=O)C1CCN(c2ncnc3[nH]ccc23)CC12CC2)c1cccc(C#N)c1` (stereo partly drawn) [Example 86, N-[(1S)-1-(3-cyanophenyl)ethyl]-5-(7H-pyrrolo[2,3-d]pyrimidin-4-yl)-5-azaspiro[2.5]octane-8-carboxamide]: the EC50 stood at 7.1 nM in data set [1], 11.3 nM in data set [2], 38 nM in data set [3] and 47.7 nM in data set [4]. Besides, the CLint scaled at 0.5 μM in data set [5] was above 200 mL/min/kg.

Take `O=C(N[C@H](CO)C(=O)OCC1CC1)[C@H]1CCN(c2ncnc3[nH]ccc23)CC12CC2` [Example 91, cyclopropylmethyl (2R)-3-hydroxy-2-[[(8S)-5-(7H-pyrrolo[2,3-d]pyrimidin-4-yl)-5-azaspiro[2.5]octane-8-carbonyl]amino]propanoate]: the EC50 in data set [1] stood at 8.2 nM; in data set [2], 17.7 nM; in data set [3], 47.3 nM; in data set [4], 163 nM. The CLint scaled at 0.5 μM in data set [5] stood at 17 mL/min/kg.

For the compound `N#Cc1ccc([C@@H](CO)NC(=O)C2CCN(c3ncnc4[nH]ccc34)CC23CC3)cc1` (stereo partly drawn) [Example 94, N-[(1S)-1-(4-cyanophenyl)-2-hydroxy-ethyl]-5-(7H-pyrrolo[2,3-d]pyrimidin-4-yl)-5-azaspiro[2.5]octane-8-carboxamide], the EC50 in data set [1] was determined as 8.6 nM; in data set [2], 53.7 nM; in data set [3], 91.1 nM; in data set [4] it was 967 nM. The CLint scaled at 0.5 μM in data set [5] was 23 mL/min/kg.

In the case of `O=C(NCc1ccccc1)C1CCN(c2ncnc3[nH]ccc23)CC12CC2` (stereo not drawn) [Example 95, N-benzyl-5-(7H-pyrrolo[2,3-d]pyrimidin-4-yl)-5-azaspiro[2.5]octane-8-carboxamide], the EC50 in data set [1] is 8.6 nM; in data set [2], 17.9 nM; in data set [3] it was 31.6 nM; in data set [4] it was 502 nM. Moreover, the CLint scaled at 0.5 μM in data set [5] was determined as 135 mL/min/kg.

As for `O=C(NC[C@H](O)c1ccccc1)C1CCN(c2ncnc3[nH]ccc23)CC12CC2` (stereo partly drawn) [Example 103, N-[(2R)-2-hydroxy-2-phenyl-ethyl]-5-(7H-pyrrolo[2,3-d]pyrimidin-4-yl)-5-azaspiro[2.5]octane-8-carboxamide], the 50% effective concentration (EC50) turned out to be 9.9 nM in data set [1], 21.4 nM in data set [2], 40.6 nM in data set [3] and 509 nM in data set [4]. Moreover, in data set [5], the CLint scaled at 0.5 μM turned out to be 128 mL/min/kg.

Turning to `O=C(N[C@@H](CO)[C@@H](O)c1ccc(F)cn1)[C@H]1CCN(c2ncnc3[nH]ccc23)CC12CC2` [Example 105, (8S)-N-[(1S,2R)-2-(5-fluoro-2-pyridyl)-2-hydroxy-1-(hydroxymethyl)ethyl]-5-(7H-pyrrolo[2,3-d]pyrimidin-4-yl)-5-azaspiro[2.5]octane-8-carboxamide], the EC50 in data set [1] turned out to be 10.2 nM; in data set [2], 11.2 nM; in data set [3] it was 56 nM; in data set [4] it was 153 nM. Moreover, in data set [5], the CLint scaled at 0.5 μM is 15 mL/min/kg.

With `C[C@@H](NC(=O)C1CCN(c2ncnc3[nH]ccc23)CC12CC2)c1ccc(C#N)cc1` (stereo partly drawn) [Example 111, N-[(1R)-1-(4-cyanophenyl)ethyl]-5-(7H-pyrrolo[2,3-d]pyrimidin-4-yl)-5-azaspiro[2.5]octane-8-carboxamide], the EC50 came to 11.2 nM in data set [1], 52.1 nM in data set [2], 123 nM in data set [3] and 930 nM in data set [4]. Besides, in data set [5], the CLint scaled at 0.5 μM was determined as 111 mL/min/kg.

For `O=C(N[C@H](CO)c1ccccc1)C1CCN(c2ncnc3[nH]ccc23)CC12CC2` (stereo partly drawn) [Example 127, N-[(1S)-2-hydroxy-1-phenyl-ethyl]-5-(7H-pyrrolo[2,3-d]pyrimidin-4-yl)-5-azaspiro[2.5]octane-8-carboxamide], the EC50 in data set [1] was 19.9 nM; in data set [2] it was 52.1 nM; in data set [3], 68.1 nM; in data set [4] it was 1100 nM. The CLint scaled at 0.5 μM in data set [5] was found to be 44 mL/min/kg.

For `C[C@H](NC(=O)[C@H]1CCN(c2ncnc3[nH]ccc23)CC12CC2)[C@@H](O)c1ccc(F)c(F)c1` [Example 149, (8S)-N-[(1S,2S)-2-(3,4-difluorophenyl)-2-hydroxy-1-methyl-ethyl]-5-(7H-pyrrolo[2,3-d]pyrimidin-4-yl)-5-azaspiro[2.5]octane-8-carboxamide], the EC50 worked out at 0.4 nM in data set [1], 200 nM in data set [2], 0.6 nM in data set [3] and 4.2 nM in data set [4]. The CLint scaled at 0.5 μM in data set [5] is above 200 mL/min/kg.

With `O=C(OCC1CC(F)(F)C1)C1CCN(c2ncnc3[nH]ccc23)CC12CC2` (stereo not drawn) [Example 153, (3,3-difluorocyclobutyl)methyl 5-(7H-pyrrolo[2,3-d]pyrimidin-4-yl)-5-azaspiro[2.5]octane-8-carboxylate], the EC50 in data set [1] worked out at 2.3 nM; in data set [2] it was 3.2 nM; in data set [3] it was 8.9 nM; in data set [4], 68 nM. The CLint scaled at 0.5 μM in data set [5] was determined as 160 mL/min/kg.

Consider `O=C(OCC1CC(F)(F)C1)[C@H]1CCN(c2ncnc3[nH]ccc23)CC12CC2` [Example 154, (3,3-difluorocyclobutyl)methyl (8S)-5-(7H-pyrrolo[2,3-d]pyrimidin-4-yl)-5-azaspiro[2.5]octane-8-carboxylate], for which the EC50 worked out at 0.9 nM in data set [1], 1.7 nM in data set [2], 5.1 nM in data set [3] and 15.7 nM in data set [4]. Also, the CLint scaled at 0.5 μM in data set [5] came out at 149 mL/min/kg.

Consider `O=C(OCC1CC(F)(F)C1)[C@@H]1CCN(c2ncnc3[nH]ccc23)CC12CC2` [Example 155, (3,3-difluorocyclobutyl)methyl (8R)-5-(7H-pyrrolo[2,3-d]pyrimidin-4-yl)-5-azaspiro[2.5]octane-8-carboxylate], for which the EC50 was determined as 30 nM in data set [1], 58 nM in data set [2], 144 nM in data set [3] and 1280 nM in data set [4]. In addition, the CLint scaled at 0.5 μM in data set [5] was above 200 mL/min/kg.

As to `O=C(OCC1(CO)CC1)[C@H]1CCN(c2ncnc3[nH]ccc23)CC12CC2` [Example 156, [1-(hydroxymethyl)cyclopropyl]methyl (8S)-5-(7H-pyrrolo[2,3-d]pyrimidin-4-yl)-5-azaspiro[2.5]octane-8-carboxylate], the EC50 turned out to be 4 nM in data set [1], 5.4 nM in data set [2], 20.4 nM in data set [3] and 30 nM in data set [4]. Besides, the CLint scaled at 0.5 μM in data set [5] stood at 94 mL/min/kg.

In the case of `O=C(OCC1(CO)CCC1)[C@H]1CCN(c2ncnc3[nH]ccc23)CC12CC2` [Example 157, [1-(hydroxymethyl)cyclobutyl]methyl (8S)-5-(7H-pyrrolo[2,3-d]pyrimidin-4-yl)-5-azaspiro[2.5]octane-8-carboxylate], the EC50 in data set [1] was 0.8 nM; in data set [2], 2.1 nM; in data set [3], 6.6 nM; in data set [4], 9 nM. In addition, the CLint scaled at 0.5 μM in data set [5] is above 200 mL/min/kg.

For the origin of these results see US10799507B2, “5-(7H-pyrrolo[2,3-d]pyrimidin-4-yl)-5-azaspiro[2.5]octane-8-carboxylic acid derivatives as novel JAK kinase inhibitors” (LEO Pharma A/S, priority 2017, dated 2020).
